Results reported in patent US10196357B2, “Biaryl compositions and methods for modulating a kinase cascade” (Athenex, Inc., priority 2007, dated 2019).
Where two headings read alike, the source gives them in different places.

What was measured:
Pyk2(h) = Pyk2(h) (Homo sapiens, UniProt Q14289); test: isolated kinase activity, Pyk2; type: biochemical; conditions: compound @ 10 μM
Description: (§1) Table 8 illustrates percent activity of isolated kinases in the presence of the AstraZeneca ATP-competitive inhibitor (KX2-328, AZ-28) or KX2-391 relative to control (untreated) isolated kinases.

Abl(h) = Abl(h) (Homo sapiens, UniProt P00519); test: isolated kinase activity, Abl; type: biochemical; conditions: compound @ 10 μM
Description: as §1

GL261 glioma cells = test: intracranial GL261 glioma survival study; type: in vivo, C57BL/6 mice; conditions: 5 mg/kg bid oral; C57BL/6 mice, intracranial GL261
Method: A brain tumor mouse xenograft study was conducted comparing KX2-361 and KX2-391 (KXO1) to Temodar®. The studies were conducted in C57BL/6 mice. GL261 glioma cells (1×10^5 in 5 μl DMEM) were implanted intracranial coordinates: bregma, lateral 2.0 mm, anterior 1.2 mm, 3.0 mm depth dura. Treatment was initiated 3 days post implantation. The groups were as follows (all doses in 100 μl H2O):
The median survival range and the log-rank (Mantel-Cox) statistical test results comparing the survival distributions of the samples.

K562 (CML) = test: growth inhibition (BrdU), K562; type: cell-based, Human; conditions: Homo sapiens, K562, K562, BrdU, T=72
Description: Growth Inhibition. […] T1 values≤T0 values were designated as T, cytotoxicity.

Lyn(h) = Lyn(h) (Homo sapiens, UniProt P07948); test: isolated kinase activity, Lyn; type: biochemical; conditions: compound @ 10 μM
Description: as §1

[1] = brain exposure after oral administration; type: in vivo, male CD-1 mice; conditions: for AUClast: Brain; for Kp: brain and plasma, read-out: AUClast Brain/AUClast Plasma Ratio
Method: Plasma concentrations were measured in mice after oral administration. All doses were formulated in purified water. Four groups of male CD-1 mice were dosed after an overnight fast and fed 4 hours post-dose. Dosing was as follows:
Protein was precipitated with 0.25 mL acetonitrile for plasma, 0.25 mL for brain. After centrifugation, supernatant was directly injected into an LC/MS system. The limit of quantitation was 1 ng/mL using a 50 μL aliquot for plasma and a 50 μL, aliquot for brain. The standard curve was 1 to 1,000 ng/mL for both plasma and brain. HPLC conditions were as follows:
HPLC System: Shimadzu SCL-10 System
• Analytical Column: Aquasil C18 5 μm 100×2 mm column. • Column Temperature: Ambient temperature • Autosampler Temperature: Ambient temperature • Mobile Phase A) 10 mM Ammonium formate in water (pH 4). • B) Acetonitrile. • Flow Rate: 0.6 mL/min • Injection Volume: 2 μL • Gradient:
• Mass Spectrometry Conditions were as follows: • Instrument: ABI Sciex API 4000 • Mode: ESI+ • Experiment: MRM (multiple reaction monitoring) • Transitions: KX2-391: m/z 432.4→114.2 (Rt=3.11 minute) • KX2-361: m/z 406.1→253.2 (Rt=3.33 minute)

[2] = male, CD-1, mouse, brain, po, 10 mg/kg, single PO dose 10 mg/kg (Group 1), read-out: Brain Concentrations, Group A, B, C
[3] = male, CD-1, mouse, brain, po, 10 mg/kg, single PO dose 10 mg/kg (Group 1), read-out: Brain Concentrations, Mean

Lyn(h), sequence (P07948 whole entry): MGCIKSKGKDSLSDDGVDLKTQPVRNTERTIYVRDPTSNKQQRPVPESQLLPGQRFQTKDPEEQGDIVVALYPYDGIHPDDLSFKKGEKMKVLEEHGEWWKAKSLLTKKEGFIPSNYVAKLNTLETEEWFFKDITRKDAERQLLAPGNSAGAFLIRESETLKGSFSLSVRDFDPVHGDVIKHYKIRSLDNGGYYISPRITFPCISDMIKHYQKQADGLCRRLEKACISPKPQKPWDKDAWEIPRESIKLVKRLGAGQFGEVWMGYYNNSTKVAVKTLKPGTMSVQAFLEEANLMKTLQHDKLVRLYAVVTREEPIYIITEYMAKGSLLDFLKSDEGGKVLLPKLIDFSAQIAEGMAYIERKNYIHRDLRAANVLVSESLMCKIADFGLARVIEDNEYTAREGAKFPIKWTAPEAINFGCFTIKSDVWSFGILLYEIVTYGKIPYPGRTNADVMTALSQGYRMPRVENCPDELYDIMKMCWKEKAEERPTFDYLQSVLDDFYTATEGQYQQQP
Abl(h), sequence (P00519 whole entry): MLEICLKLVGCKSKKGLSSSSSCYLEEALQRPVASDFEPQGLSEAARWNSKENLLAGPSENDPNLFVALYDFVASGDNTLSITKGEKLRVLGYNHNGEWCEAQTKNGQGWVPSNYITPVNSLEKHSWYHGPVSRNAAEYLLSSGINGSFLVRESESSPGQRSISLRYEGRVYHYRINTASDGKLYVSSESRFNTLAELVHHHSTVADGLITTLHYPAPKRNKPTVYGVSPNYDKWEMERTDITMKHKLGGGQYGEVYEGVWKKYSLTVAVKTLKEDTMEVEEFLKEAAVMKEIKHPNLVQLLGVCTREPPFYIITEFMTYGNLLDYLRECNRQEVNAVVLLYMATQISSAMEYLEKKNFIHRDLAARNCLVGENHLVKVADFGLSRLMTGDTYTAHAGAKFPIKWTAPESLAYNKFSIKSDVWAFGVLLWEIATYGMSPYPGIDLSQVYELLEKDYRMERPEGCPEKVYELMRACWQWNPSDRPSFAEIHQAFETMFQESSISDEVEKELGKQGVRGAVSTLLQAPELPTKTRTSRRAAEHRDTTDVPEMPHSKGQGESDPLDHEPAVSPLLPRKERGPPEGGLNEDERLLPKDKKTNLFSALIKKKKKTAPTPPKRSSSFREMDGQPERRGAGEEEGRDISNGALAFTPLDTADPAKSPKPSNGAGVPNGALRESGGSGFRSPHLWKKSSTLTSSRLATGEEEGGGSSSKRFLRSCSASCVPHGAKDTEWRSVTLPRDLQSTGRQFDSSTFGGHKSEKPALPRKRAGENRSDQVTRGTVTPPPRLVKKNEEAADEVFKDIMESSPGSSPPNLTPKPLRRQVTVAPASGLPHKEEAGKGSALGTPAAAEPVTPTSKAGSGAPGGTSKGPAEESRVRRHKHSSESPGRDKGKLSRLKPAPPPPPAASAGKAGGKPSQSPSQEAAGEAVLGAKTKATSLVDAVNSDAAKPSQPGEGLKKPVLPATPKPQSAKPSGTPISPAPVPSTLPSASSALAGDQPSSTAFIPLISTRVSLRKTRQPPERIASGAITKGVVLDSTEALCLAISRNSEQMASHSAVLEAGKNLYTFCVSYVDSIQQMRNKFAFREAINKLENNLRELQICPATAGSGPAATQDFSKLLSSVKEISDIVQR
Pyk2(h), sequence (Q14289 whole entry): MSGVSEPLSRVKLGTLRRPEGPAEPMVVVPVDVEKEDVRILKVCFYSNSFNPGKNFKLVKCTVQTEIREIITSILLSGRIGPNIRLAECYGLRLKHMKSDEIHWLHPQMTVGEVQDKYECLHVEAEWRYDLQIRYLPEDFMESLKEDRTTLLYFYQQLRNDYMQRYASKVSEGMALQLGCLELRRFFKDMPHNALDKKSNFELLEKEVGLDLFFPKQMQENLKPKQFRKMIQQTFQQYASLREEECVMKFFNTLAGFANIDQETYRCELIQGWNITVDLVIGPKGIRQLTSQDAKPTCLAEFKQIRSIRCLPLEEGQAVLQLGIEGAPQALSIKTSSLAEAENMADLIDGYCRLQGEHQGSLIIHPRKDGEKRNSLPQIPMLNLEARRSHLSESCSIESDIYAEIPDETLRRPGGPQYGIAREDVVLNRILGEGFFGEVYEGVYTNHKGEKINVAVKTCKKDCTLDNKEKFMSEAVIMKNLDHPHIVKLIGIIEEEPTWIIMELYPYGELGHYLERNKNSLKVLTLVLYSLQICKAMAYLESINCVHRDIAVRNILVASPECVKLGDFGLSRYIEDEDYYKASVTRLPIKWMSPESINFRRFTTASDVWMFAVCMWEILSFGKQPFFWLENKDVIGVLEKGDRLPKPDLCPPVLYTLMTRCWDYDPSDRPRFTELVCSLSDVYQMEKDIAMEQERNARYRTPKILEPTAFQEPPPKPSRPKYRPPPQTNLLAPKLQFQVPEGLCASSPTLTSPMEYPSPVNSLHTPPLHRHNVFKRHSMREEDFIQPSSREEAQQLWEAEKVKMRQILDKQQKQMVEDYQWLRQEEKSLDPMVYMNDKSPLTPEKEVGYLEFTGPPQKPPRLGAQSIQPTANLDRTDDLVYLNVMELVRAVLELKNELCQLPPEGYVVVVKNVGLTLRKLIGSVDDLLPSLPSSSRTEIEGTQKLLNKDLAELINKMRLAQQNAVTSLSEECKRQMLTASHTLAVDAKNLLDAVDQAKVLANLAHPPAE

Q: What does the source list for `O=C(Cc1ccc(-c2ccc(OCCN3CCOCC3)cc2)cn1)NCc1ccccc1` [KX2-391]?
A: percent activity of isolated kinase relative to control (Pyk2(h)): 97%; percent activity of isolated kinase relative to control (Abl(h)): 120%; Median survival (GL261 glioma cells): 23; survival Range (GL261 glioma cells): 22-29; GI50 (K562 (CML)): 10.9 nM; percent activity of isolated kinase relative to control (Lyn(h)): 113%; AUClast ([1]; single oral dose 10 mg/kg): 631 ng·h/g; AUClast ([1]; single oral dose 50 mg/kg): 4211 ng·h/g; KX2-391 Brain Concentrations, Group A ([1]; Male CD-1 mice, single PO dose 50 mg/kg (Group 4), 0 hr, Group A): BLQ (BLQ: Below Limit of Quantitation (1 ng/mL)); KX2-391 Brain Concentrations, Group B ([1]; Male CD-1 mice, single PO dose 50 mg/kg (Group 4), 0 hr, Group B): BLQ (BLQ: Below Limit of Quantitation (1 ng/mL)); KX2-391 Brain Concentrations, Group C ([1]; Male CD-1 mice, single PO dose 50 mg/kg (Group 4), 0 hr, Group C): BLQ (BLQ: Below Limit of Quantitation (1 ng/mL)); Kp ([1]; male, CD-1, mouse, single oral dose 10 mg/kg): 0.42; Kp ([1]; male, CD-1, mouse, single oral dose 50 mg/kg): 0.39; concentration at 0.5 h [1, 2]: 398 ng/g; concentration at 0.5 h [1, 3]: 398 ng/g; concentration at 1 h ([1]; male, CD-1, mouse, brain, po, 10 mg/kg, single PO dose 10 mg/kg (Group 1), 1 hr, read-out: Brain Concentrations, Mean): 170 ng/g; concentration at 2 h ([1]; male, CD-1, mouse, brain, po, 10 mg/kg, single PO dose 10 mg/kg (Group 1), 2 hr, read-out: Brain Concentrations, Group A, B, C): 126 ng/g; concentration at 2 h ([1]; male, CD-1, mouse, brain, po, 10 mg/kg, single PO dose 10 mg/kg (Group 1), 2 hr, read-out: Brain Concentrations, Mean): 98.5 ng/g; concentration at 5 h [1, 2]: 67.7 ng/g; concentration at 5 h [1, 3]: 71.4 ng/g; concentration at 0 hr ([1]; male, CD-1, mouse, brain, po, 50 mg/kg, Male CD-1 mice, single PO dose 50 mg/kg (Group 4), 0 hr, Mean, read-out: KX2-391 Brain Concentrations, Mean): 0 ng/g; concentration at 0.5 hr ([1]; male, CD-1, mouse, brain, po, 50 mg/kg, Male CD-1 mice, single PO dose 50 mg/kg (Group 4), Group A, read-out: KX2-391 Brain Concentrations, Group A): 960 ng/g; concentration at 0.5 hr ([1]; male, CD-1, mouse, brain, po, 50 mg/kg, Male CD-1 mice, single PO dose 50 mg/kg (Group 4), Group B, read-out: KX2-391 Brain Concentrations, Group B): 2120 ng/g; concentration at 0.5 hr ([1]; male, CD-1, mouse, brain, po, 50 mg/kg, Male CD-1 mice, single PO dose 50 mg/kg (Group 4), Group C, read-out: KX2-391 Brain Concentrations, Group C): 1050 ng/g; concentration at 0.5 hr ([1]; male, CD-1, mouse, brain, po, 50 mg/kg, Male CD-1 mice, single PO dose 50 mg/kg (Group 4), Mean, read-out: KX2-391 Brain Concentrations, Mean): 1380 ng/g; concentration at 1 hr ([1]; male, CD-1, mouse, brain, po, 50 mg/kg, Male CD-1 mice, single PO dose 50 mg/kg (Group 4), 1 hr, Group A, read-out: KX2-391 Brain Concentrations, Group A): 851 ng/g; concentration at 1 hr ([1]; male, CD-1, mouse, brain, po, 50 mg/kg, Male CD-1 mice, single PO dose 50 mg/kg (Group 4), 1 hr, Group B, read-out: KX2-391 Brain Concentrations, Group B): 1890 ng/g; concentration at 1 hr ([1]; male, CD-1, mouse, brain, po, 50 mg/kg, Male CD-1 mice, single PO dose 50 mg/kg (Group 4), 1 hr, Group C, read-out: KX2-391 Brain Concentrations, Group C): 549 ng/g; concentration at 1 hr ([1]; male, CD-1, mouse, brain, po, 50 mg/kg, Male CD-1 mice, single PO dose 50 mg/kg (Group 4), 1 hr, Mean, read-out: KX2-391 Brain Concentrations, Mean): 1100 ng/g; concentration at 2 hr ([1]; male, CD-1, mouse, brain, po, 50 mg/kg, Male CD-1 mice, single PO dose 50 mg/kg (Group 4), 2 hr, Group A, read-out: KX2-391 Brain Concentrations, Group A): 414 ng/g
